Measured values taken from paper PMC8387736 (Drug Design, Development and Therapy, 2021).
Where two headings read alike, the source gives them in different places.

What was measured:
[1] = rats
[2] = biological target: T1, CYP2B6 (Homo sapiens, UniProt P20813); conditions: HLMs
T1 sequence (P20813 1-491): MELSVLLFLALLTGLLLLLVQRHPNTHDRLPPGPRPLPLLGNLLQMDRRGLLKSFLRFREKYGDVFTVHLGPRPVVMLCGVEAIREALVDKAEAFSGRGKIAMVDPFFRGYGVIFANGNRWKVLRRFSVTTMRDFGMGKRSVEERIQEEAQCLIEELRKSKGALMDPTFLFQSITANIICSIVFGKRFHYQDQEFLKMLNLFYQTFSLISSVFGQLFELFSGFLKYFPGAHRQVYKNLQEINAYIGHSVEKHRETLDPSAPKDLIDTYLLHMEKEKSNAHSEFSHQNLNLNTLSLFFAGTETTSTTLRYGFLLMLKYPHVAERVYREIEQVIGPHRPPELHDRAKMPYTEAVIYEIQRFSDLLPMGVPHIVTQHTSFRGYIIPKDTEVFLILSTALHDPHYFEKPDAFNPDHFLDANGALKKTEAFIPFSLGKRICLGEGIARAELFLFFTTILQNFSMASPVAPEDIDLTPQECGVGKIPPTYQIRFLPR

[3] = biological target: T2, CYP2E1 (Homo sapiens, UniProt P05181); conditions: HLMs
[4] = biological target: T3, cyp2d1 (Rattus norvegicus, UniProt P10633); assay: Inhibition of dextromethorphan metabolism by avitinib in rat liver microsomes
T3 sequence (P10633 1-504): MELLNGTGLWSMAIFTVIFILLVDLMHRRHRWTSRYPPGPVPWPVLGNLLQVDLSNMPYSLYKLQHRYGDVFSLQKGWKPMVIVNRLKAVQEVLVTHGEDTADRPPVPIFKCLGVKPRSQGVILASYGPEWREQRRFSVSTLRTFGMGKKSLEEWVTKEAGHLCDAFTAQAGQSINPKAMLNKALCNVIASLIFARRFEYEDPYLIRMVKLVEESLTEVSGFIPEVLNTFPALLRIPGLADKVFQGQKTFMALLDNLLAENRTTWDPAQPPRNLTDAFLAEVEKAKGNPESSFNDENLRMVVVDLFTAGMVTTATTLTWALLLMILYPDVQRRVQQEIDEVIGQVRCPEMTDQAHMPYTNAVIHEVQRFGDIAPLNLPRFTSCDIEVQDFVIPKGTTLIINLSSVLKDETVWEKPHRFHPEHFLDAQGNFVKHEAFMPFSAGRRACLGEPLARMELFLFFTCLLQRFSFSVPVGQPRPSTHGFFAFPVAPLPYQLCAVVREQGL

[5] = biological target: T4, CYP1A2 (Homo sapiens, UniProt P05177); conditions: HLMs
T4 sequence (P05177 1-516): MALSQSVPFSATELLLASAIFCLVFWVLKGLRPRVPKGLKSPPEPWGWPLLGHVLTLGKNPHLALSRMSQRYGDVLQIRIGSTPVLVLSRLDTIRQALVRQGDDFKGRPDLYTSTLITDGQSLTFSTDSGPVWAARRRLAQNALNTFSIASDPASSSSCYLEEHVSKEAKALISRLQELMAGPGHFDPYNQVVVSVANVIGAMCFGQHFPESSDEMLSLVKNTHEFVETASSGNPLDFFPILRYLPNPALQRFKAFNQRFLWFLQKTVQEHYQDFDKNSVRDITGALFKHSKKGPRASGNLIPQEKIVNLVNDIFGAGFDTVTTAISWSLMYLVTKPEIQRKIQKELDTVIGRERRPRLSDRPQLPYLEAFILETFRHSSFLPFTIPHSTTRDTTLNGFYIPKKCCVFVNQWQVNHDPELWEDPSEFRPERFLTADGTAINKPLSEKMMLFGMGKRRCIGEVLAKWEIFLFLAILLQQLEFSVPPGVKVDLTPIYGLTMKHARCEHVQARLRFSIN

[6] = biological target: T4, CYP1A2; assay: biochemical
[7] = biological target: cyp2e1 (Rattus norvegicus, UniProt P05182); assay: Inhibition of chlorzoxazone metabolism by avitinib in rat liver microsomes
[8] = biological target: T2, CYP2E1; assay: biochemical
[9] = biological target: T5, cyp1a2 (Rattus norvegicus, UniProt P04799); assay: Inhibition of phenacetin metabolism by avitinib in rat liver microsomes
T5 sequence (P04799 1-513): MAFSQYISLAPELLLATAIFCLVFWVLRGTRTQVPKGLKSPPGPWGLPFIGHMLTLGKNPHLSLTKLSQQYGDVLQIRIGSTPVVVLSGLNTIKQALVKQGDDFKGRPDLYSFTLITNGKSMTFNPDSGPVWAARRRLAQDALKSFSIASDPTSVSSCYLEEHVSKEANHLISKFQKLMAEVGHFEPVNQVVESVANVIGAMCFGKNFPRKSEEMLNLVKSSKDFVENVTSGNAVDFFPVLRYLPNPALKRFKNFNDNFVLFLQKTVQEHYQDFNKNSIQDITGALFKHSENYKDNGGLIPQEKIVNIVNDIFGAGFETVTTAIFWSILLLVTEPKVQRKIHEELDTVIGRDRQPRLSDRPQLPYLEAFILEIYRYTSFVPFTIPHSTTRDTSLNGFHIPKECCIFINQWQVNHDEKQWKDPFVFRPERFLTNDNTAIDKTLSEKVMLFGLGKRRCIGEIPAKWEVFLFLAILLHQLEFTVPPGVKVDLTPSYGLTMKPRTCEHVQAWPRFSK

[10] = biological target: T6, CYP2C9 (Homo sapiens, UniProt P11712); assay: biochemical
[11] = biological target: T7, CYP2D6 (Homo sapiens, UniProt P10635); assay: biochemical
[12] = biological target: T1, CYP2B6; assay: biochemical
[13] = biological target: T6, CYP2C9; conditions: HLMs
[14] = biological target: T8, cyp2b1 (Rattus norvegicus, UniProt P00176); assay: Inhibition of bupropion metabolism by avitinib in rat liver microsomes
T8 sequence (P00176 1-491): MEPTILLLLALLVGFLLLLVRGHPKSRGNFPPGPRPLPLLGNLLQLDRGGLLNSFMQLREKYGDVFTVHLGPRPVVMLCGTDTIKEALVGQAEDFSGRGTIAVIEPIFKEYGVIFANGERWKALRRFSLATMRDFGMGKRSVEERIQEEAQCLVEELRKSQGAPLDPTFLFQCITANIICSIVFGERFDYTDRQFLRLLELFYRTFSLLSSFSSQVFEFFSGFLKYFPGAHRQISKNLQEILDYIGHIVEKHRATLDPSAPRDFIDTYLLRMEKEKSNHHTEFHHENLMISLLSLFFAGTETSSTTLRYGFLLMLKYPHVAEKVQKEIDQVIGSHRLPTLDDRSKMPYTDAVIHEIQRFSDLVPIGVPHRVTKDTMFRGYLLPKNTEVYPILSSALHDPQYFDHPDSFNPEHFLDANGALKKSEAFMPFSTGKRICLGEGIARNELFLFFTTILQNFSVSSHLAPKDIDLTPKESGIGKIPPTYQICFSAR

[15] = test system: cyp3as; assay: Inhibition of midazolam metabolism by avitinib in rat liver microsomes
[16] = biological target: T9, cyp2c11 (Rattus norvegicus, UniProt P08683); assay: Inhibition of tolbutamide metabolism by avitinib in rat liver microsomes
T9 sequence (P08683 1-500): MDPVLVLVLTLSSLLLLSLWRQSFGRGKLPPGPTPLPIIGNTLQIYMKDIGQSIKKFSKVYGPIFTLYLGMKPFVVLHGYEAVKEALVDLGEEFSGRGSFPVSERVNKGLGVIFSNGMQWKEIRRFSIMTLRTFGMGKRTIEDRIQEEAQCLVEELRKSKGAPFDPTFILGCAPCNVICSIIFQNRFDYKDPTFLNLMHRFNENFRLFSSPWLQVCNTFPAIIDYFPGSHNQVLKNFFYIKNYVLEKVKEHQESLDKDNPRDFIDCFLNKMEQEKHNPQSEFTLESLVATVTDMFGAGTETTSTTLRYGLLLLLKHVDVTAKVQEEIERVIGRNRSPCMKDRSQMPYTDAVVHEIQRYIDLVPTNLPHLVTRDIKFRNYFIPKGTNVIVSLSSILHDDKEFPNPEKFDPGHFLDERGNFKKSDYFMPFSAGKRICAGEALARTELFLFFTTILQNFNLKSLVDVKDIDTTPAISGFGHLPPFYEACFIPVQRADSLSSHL

[17] = biological target: T7, CYP2D6; conditions: HLMs
[18] = test system: CYP3As; assay: Inhibition of midazolam metabolism by avitinib in human liver microsomes; format: in vitro ADME
[19] = multiple-doses 30 mg/kg avitinib (7 days)
[20] = avitinib 30 mg/kg multiple-doses or single-dose vs control

T2 sequence (P05181 whole entry): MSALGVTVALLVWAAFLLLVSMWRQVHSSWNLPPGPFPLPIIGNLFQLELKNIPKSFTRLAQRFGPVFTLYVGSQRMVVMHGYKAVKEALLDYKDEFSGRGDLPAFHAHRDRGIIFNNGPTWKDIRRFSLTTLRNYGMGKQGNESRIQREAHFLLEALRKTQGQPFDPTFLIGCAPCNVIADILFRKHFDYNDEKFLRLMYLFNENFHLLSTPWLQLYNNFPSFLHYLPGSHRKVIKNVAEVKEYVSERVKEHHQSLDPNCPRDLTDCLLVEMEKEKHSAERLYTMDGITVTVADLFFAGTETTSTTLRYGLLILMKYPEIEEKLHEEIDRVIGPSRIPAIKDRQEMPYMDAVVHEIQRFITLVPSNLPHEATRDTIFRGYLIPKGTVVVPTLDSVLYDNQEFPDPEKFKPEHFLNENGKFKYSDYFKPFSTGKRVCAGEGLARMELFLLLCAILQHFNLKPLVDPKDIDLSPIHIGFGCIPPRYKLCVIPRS
T7 sequence (P10635 whole entry): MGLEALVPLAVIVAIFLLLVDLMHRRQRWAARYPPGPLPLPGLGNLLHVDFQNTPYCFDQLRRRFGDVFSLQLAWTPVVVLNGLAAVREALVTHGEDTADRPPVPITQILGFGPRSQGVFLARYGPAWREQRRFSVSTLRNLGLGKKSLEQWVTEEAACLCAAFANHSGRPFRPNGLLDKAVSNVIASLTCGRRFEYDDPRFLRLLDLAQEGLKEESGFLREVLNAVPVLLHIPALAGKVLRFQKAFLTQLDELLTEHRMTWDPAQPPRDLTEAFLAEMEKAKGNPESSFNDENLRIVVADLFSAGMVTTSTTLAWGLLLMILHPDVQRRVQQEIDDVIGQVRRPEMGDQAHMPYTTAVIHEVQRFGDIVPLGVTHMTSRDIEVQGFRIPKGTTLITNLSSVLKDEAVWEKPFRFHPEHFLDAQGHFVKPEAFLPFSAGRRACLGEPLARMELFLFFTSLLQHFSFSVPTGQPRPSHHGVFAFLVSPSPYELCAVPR
Chain of cyp2e1 (P05182 whole entry): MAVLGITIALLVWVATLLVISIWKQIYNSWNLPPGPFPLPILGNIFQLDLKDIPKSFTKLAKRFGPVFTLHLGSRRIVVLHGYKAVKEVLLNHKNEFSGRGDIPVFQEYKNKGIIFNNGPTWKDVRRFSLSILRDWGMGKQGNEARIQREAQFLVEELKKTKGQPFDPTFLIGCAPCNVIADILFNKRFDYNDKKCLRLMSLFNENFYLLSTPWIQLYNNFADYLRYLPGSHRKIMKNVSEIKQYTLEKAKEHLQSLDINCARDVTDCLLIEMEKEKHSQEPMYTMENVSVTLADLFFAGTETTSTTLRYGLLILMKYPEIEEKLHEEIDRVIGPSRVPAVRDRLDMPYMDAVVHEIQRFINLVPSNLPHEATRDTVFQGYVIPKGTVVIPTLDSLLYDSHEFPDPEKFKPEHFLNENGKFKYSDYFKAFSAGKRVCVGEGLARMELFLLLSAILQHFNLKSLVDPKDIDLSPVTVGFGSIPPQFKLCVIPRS
T6 sequence (P11712 whole entry): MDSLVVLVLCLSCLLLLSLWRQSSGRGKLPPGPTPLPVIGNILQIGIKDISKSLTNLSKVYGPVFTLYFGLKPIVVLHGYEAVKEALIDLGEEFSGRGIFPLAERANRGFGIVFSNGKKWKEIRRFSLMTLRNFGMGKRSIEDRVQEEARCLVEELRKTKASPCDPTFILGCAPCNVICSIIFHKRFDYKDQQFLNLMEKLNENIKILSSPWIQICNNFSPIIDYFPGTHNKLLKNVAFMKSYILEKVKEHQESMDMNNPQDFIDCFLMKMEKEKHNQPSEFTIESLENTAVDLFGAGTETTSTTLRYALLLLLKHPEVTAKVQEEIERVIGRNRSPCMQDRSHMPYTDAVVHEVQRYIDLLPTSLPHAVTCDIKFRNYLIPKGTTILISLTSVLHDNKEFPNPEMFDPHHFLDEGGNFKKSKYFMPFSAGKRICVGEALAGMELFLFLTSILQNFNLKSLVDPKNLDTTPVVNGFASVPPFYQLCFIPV

SMILES: CC(NC(C)(C)C)C(=O)c1cccc(Cl)c1 (stereo not drawn) [Bupropion]
- reduction of CLz/F compared with control group [1, 19]: 57.54%
- reduction of Vz/F compared with control group [1, 19]: 62.74%
- reduction of CLz/F compared with control group ([1]; single-dose 30 mg/kg avitinib): 53.96%
- reduction of Vz/F compared with control group ([1]; single-dose 30 mg/kg avitinib): 64.59%

SMILES: COc1ccc2c(c1)[C@]13CCCC[C@@H]1[C@H](C2)N(C)CC3 [Dextromethorphan]
- change in Tmax values after avitinib (in words) [1, 20]: No significant changes
- reduction of CLz/F compared with control group [1, 19]: 82.22%
- reduction of Vz/F compared with control group [1, 19]: 73.53%
- reduction of CLz/F compared with control group ([1]; single-dose 30 mg/kg avitinib): 67.78%
- reduction of Vz/F compared with control group ([1]; single-dose 30 mg/kg avitinib): 69.7%

SMILES: Cc1ncc2n1-c1ccc(Cl)cc1C(c1ccccc1F)=NC2 [Midazolam]
- difference in Cmax after avitinib (in words) [1, 20]: No significant difference

SMILES: CCOc1ccc(NC(C)=O)cc1 [Phenacetin]
- change in t1/2 values after avitinib (in words) [1, 20]: no significant change
- reduction of CLz/F compared with control group [1, 19]: 63.17%
- reduction of Vz/F compared with control group [1, 19]: 63.09%
- reduction of CLz/F compared with control group ([1]; single-dose 30 mg/kg avitinib): 39.52%

SMILES: CCCCNC(=O)NS(=O)(=O)c1ccc(C)cc1 [Tolbutamide]
- difference in Cmax after avitinib (in words) [1, 20]: No significant difference

SMILES: C=CC(=O)Nc1cccc(Oc2nc(Nc3ccc(N4CCN(C)CC4)c(F)c3)nc3[nH]ccc23)c1 [avitinib, Avitinib]
- inhibitory effect on CYP2B6 (grade in words) [2]: weak
- inhibitory effect on CYP2E1 (grade in words) [3]: weak
- IC50 [4]: 44.4 µM
- inhibitory effect on cyp2d1 (grade in words) ([4]; RLMs): weak
- inhibitory effect on CYP1A2 (grade in words) [5]: weak
- IC50 [6]: 48.4 µM
- IC50 [7]: 23.2 µM
- inhibitory effect on cyp2e1 (grade in words) ([7]; RLMs): weak
- IC50 [8]: 57.1 µM
- IC50 [9]: 15.8 µM
- inhibitory effect on cyp1a2 (grade in words) ([9]; RLMs): weak
- IC50 [10]: 6.91 µM
- IC50 [11]: 56.6 µM
- IC50 [12]: 22.6 µM
- inhibitory effect on CYP2C9 (grade in words) [13]: moderate
- IC50 [14]: 6.39 µM
- inhibitory effect on cyp2b1 (grade in words) ([14]; RLMs): moderate
- inhibitory effect on cyp3as (grade in words) ([15]; RLMs): weak
- IC50 at 30 min ([15]; male, Sprague-Dawley, rat, rat liver microsomes, probe midazolam (5 μM)): 27.6 µM
- IC50 [16]: 42.2 µM
- inhibitory effect on cyp2c11 (grade in words) ([16]; RLMs): weak
- inhibitory effect on CYP2D6 (grade in words) [17]: weak
- inhibitory effect on CYP3As (grade in words) ([18]; HLMs): weak
- IC50 at 30 min ([18]; human, human liver microsomes, probe midazolam (5 μM)): 59.6 µM
